# “Also recorded” adds a separate entry of the source. Where a name gives a salt, the structure may show the parent alone.
# Key:
# [1] = system: MSC firm adhesion to E-selectin-coated surface; assay: E-selectin firm adhesion assay under shear flow, with antibody blocking; assay type: cell-based, human; conditions: 3 μM for 24 h
# Procedure: (§1) Cell adhesion experiments were performed using Bioflux1000 (FluxionBio), allowing accurate control over shear flow. A special 48-well plate was used, in which a microfluidic channel (350 μm×70 μm) connects each pair of adjacent wells (termed inlet and outlet wells). The plate was placed under vacuum and the channels were coated from the inlet with recombinant human E-selectin (5 μg/mL) or ICAM-1 (5 μg/mL) and incubated at 37° C. for 1 h. Prior to introducing the cells into the channel, a wash with PBS−/− from the outlet well was performed for 5 min. Compound-pretreated MSCs were introduced into the channel, followed by attachment period of 2 minutes (no flow applied during the attachment period). Attached cells were then subjected to increasing shear flow, ranging from 0.25 dynes/cm^2 for up to 10 dynes/cm^2. Images were acquired using the Montage software and cell adhesion to the coated channels following subjection to shear flow was examined. See also disclosure elsewhere herein.
# Pre-confluent MSCs were incubated for 24 hours with the indicated small molecules (3 μM). MSCs were than detached, washed and incubated for 30 minutes with an antibody reagent. The following antibodies are used: anti-human CD11a (clone: HI111), anti-human CD90 (clone: MAB2067), mouse anti-human CD11a (clone: TS1/22), and mouse IgG1 isotype control. Cells were then introduced into the channel and given 2 minutes to adhere before being subjected to increasing shear flow for a firm adhesion assay on a microfluidic channel coated with E-selectin or ICAM-1.
# (§2) 1. Obtain preferred channel coating (protein/cell monolayer). 2. Prepare cell suspension (same concentrations detailed above for different cell types). 3. Add 50 μl of cell suspension to outlet well. 4. Introduce cells into channel by applying shear force of 2 dynes/cm^2 (cells should be observed within 10-15 sec flowing from outlet to inlet). 5. Once cells are observed in the channel, stop the flow and allow the introduced cells to sit for different time periods ranging from 30 seconds to 5 minutes. 6. Following this settling period, apply shear force starting from 0.5 dynes/cm^2 up to 10 dynes/cm^2 and acquire videos using stream acquisition. 7. Cell quantification is then performed using the Montage software—percentage of cells adhered, rolled or washed away after applying shear flow should be quantified.
# [2] = system: human mesenchymal stem cells; assay: In vitro functional firm adhesion assay of cells (Table 3, coating not stated); assay type: cell-based; design: key to Result, in vitro Firm Adhesion: NA = negative activity result; A = positive activity result; conditions: for Firm adhesion, Percent increase: relative to untreated and/or negative control MSCs
# Procedure: as §1, §2
# [3] = system: LPS-induced inflamed mouse ear; assay: In vivo MSC homing to LPS-induced inflamed ear after systemic infusion, intravital microscopy; design: key to In vivo functional assay (homing): NA = negative activity result; A = positive activity result; conditions: for Increase of MSC homing to inflamed ear (%): relative to untreated cells; for MSC homing to the inflamed ear in vivo, result in words: vs vehicle-treated control
# Procedure: C57BL/6 mice (Charles River Laboratories, Wilmington, Mass.) were anesthetized with ketamine/xylazine and their ears shaved 24 h prior to cell infusion. To induce an inflammatory response, 30 μg of E. coli lipopolysaccharide (LPS, Sigma, St. Louis, Mo.) in 50 μL saline was injected into the pinna of the left ear, with 50 μL 0.9% saline injected into the right ear as a control. For in vivo dye sensitivity validation, 1×10e6 cells of each stain were suspended in 150 μL PBS (pH 7.4) and injected by retro-orbital vein infusion.
# To evaluate the minimum number of cells needed for a reproducible response, each mouse (n=4) received a range of cell doses (10,000, 50,000, 100,000, or 500,000) each of cells stained with Dil or DiD with a dye switch (i.e., dyes used for experimental and control cells were alternated to prevent bias based on the dyes that were used). To evaluate the impact of small molecule hit pre-treatment on MSC homing to the inflamed ear, MSCs were incubated with 3 μM of the small molecule hit or 0.1% DMSO as a control for 24 h before staining and in vivo administration. To highlight the vasculature, 50 μL of 10 mg/mL FITC-dextran ([…]; Sigma, St. Louis, Mo.) was injected retro-orbitally prior to imaging.
# In vitro staining and in vivo homing of stained MSCs to the skin was imaged noninvasively in real time using a custom-built video-rate laser-scanning confocal microscope designed specifically for live animal imaging. For in vivo imaging, the mouse ear was positioned under a coverslip with methylcellulose gel and images acquired at 30 frames per second at a depth up to 200 μm using a 60×1.0NA water immersion objective lens (Olympus, Center Valley, Pa.). DiO labeled MSCs were excited with a 491 nm continuous wave (CW) laser (Cobalt, Stockholm, Sweden), and detected through a 520±20 nm bandpass filter (Semrock, Inc., Rochester, N.Y.). Dil labeled MSCs were excited with a 561 nm CW laser (Coherent, Inc., Santa Clara, Calif.) and detected through a 593 nm±40 nm filter (Omega Optical, Brattleboro, Vt.). DiD labeled MSCs were excited with a 635 nm CW laser (Coherent, Inc., Santa Clara, Calif.) and detected through a 695 nm±27.5 nm band pass filter (Omega Optical, Brattleboro, Vt.). DiR labeled MSCs were excited using a femtosecond Ti:Sapphire Maitai source for single photon excitation at 750 nm (Spectra Physics, Santa Clara, Calif.) and collected through a 785 nm±31 nm band pass filter (Omega Optical, Brattleboro, Vt.).
# For quantification, the average number of cells in 20 representative imaging locations across the inflamed region was counted in each mouse. Cells were defined as having a diameter from 10-30 μm to eliminate debris and clumps from analysis, and a primary channel intensity greater than 2 to eliminate autofluorescent events. The average relative detection sensitivity (ratio of Dil/DiD counts) determined in the overall dye efficiency experiments were used to scale the counts for DiD stained cells. […] For multiple comparisons, Tukey's HSD test was used. Error bars in graphs represent standard error, and statistical significance is denoted by * p<0.05.
# [4] = MSCs pretreated 3 μM 24 h, 24 h after infusion
Compound,Adhered cells on E-selectin-coated surface before CD11a blocking [1] [%],Firm adhesion to E-selectin of pretreated MSC compared to control MSCs [1] [fold],Adhered cells on E-selectin-coated surface following CD11a blocking ([1]; CD11a blocking antibody 30 minutes) [%],Effect of antibody blocking of CD90 on firm adhesion ([1]; E-selectin),"Result, in vitro Firm Adhesion ([2]; pretreated huMSCs)","Firm adhesion, Percent increase ([2]; hydrochloride) [%]","Increase of MSC homing to inflamed ear compared to vehicle-treated MSCs [3, 4] [%]","MSC homing to skin in the inflamed ear, average cells [3, 4] [cells/cm^2]","Increased homing versus vehicle-treated MSCs, without CD11a blocking ([3]; inflamed ear) [%]","Increased homing versus vehicle-treated MSCs, CD11a blocked prior to infusion ([3]; inflamed ear, anti-human CD11a clone TS1/22)",Increase of MSC homing to inflamed ear (%) ([3]; hydrochloride),In vivo functional assay (homing) ([3]; systemic administration of pretreated huMSCs),"MSC homing to the inflamed ear in vivo, result in words [3]",Effect of antibody blocking of CD11a or CD90 on firm adhesion ([1]; E-selectin),"MSC firm adhesion to E-selectin-coated substrates, result in words ([1]; vs vehicle-treated MSCs)","Firm adhesion, Percent increase [2] [%]",Increase of MSC homing to inflamed ear (%) [3] [%]
"Cn1cc(C2=C(c3c4n(c5ccccc35)CCC(CN)C4)C(=O)NC2=O)c2ccccc21 (stereo not shown) [Compound 1929, 3-(8-aminomethyl-6,7,8,9-tetrahydro-pyrido[1,2-a]indol-10-yl)-4-(1-methyl-1H-indol-3-yl)-pyrrole-2,5-dione hydrochloride]",~90,3,50,no effect,A,88,69.3±11.3,78.5±15.9,70,less than 10%,73,A,significantly promoted MSC homing,–,–,–,–
"CCc1c2c(nc3ccc(OC(=O)N4CCC(N5CCCCC5)CC4)cc13)-c1cc3c(c(=O)n1C2)COC(=O)[C@]3(O)CC [Compound 1927, reference compound]",–,–,–,–,–,–,–,47.2±20.4,–,–,–,–,no impact; also recorded: did not affect MSC homing,no effect,did not improve,22,0

# Reference: patent US20170216360A1, “METHODS AND COMPOSITIONS FOR IMPROVING HOMING OF CELLS INCLUDING MESENCHYMAL STEM CELLS” (SANOFI, priority 2014, published 2017)
